Laboratory results taken from ChEMBL document CHEMBL3243923, “Linked Aryl Aryloxypropanolamines as a new class of lipid catabolis agents” (J Med Chem, 1978).
The source made the active and inactive calls. The calls are words filed in the database; no cut-off is given here.

How the values were obtained:
Mus musculus [1] = assay: Reduction of plasma insulin level in mouse at 0.04% administered every day through diet for 10 days measured on day 10 by double antibody method relative to control; assay type: functional; parameters: scale not given: the % may be the effect or the level left
Rattus norvegicus [2] = species: Rattus norvegicus; assay: Toxicity in rat assessed as lymphopenia; assay type: organism-based; conditions: in vivo
Mus musculus [3] = assay: Antiobesity activity in mouse assessed as reduction in utero fat at 0.01% administered every day through diet for 10 days measured after day 10 relative to control; assay type: functional; parameters: scale not given: the % may be the effect or the level left
Mus musculus [4] = assay: Antiobesity activity in mouse assessed as reduction in utero fat administered every day through diet for 10 days measured after day 10; assay type: functional; conditions: 240 h
[5] = (§1) Chronic toxicity in po dosed mouse assessed as mortality administered as qd for 21 days; assay type: organism-based; conditions: in vivo, read-out: MNTD
[6] = Therapeutic index, ratio of MNTD for chronic toxicity in po dosed mouse to ED25 for antiobesity activity in mouse assessed as reduction in utero fat; assay type: organism-based; conditions: in vivo, read-out: TI
Mus musculus [7] = assay: Toxicity in mouse assessed as liver hypertrophy at 1000 mg/kg, po administered for 21 days; assay type: organism-based; parameters: dose 1000 mg/kg, route oral; conditions: in vivo, 504 h
Rattus norvegicus [8] = species: Rattus norvegicus; assay: Toxicity in rat assessed as estrogenic activity; assay type: organism-based; conditions: in vivo
Rhesus monkey = assay: Toxicity in monkey assessed as estrogenic activity; assay type: organism-based, Macaca mulatta; conditions: in vivo
Rattus norvegicus [9] = assay: Antiobesity activity in rat assessed as reduction in food intake at 80 mg/kg administered every day through diet for 5 weeks measured every week for 5 weeks relative to control; assay type: functional; parameters: scale not given: the % may be the effect or the level left
Rattus norvegicus [10] = assay: Antiobesity activity in rat assessed as reduction in food intake at 80 mg/kg, po qd administered for 5 days measured every day for 5 days relative to control; assay type: functional; parameters: scale not given: the % may be the effect or the level left
Rattus norvegicus [11] = assay: Antiobesity activity in rat assessed as reduction in body weight at 80 mg/kg administered every day through diet for 5 weeks measured for 5 weeks relative to control; assay type: functional; parameters: scale not given: the % may be the effect or the level left
Rattus norvegicus [12] = assay: Antiobesity activity in rat assessed as reduction in body weight at 80 mg/kg, po qd administered for 5 days measured on day 6 relative to control; assay type: functional; parameters: scale not given: the % may be the effect or the level left
Rattus norvegicus [13] = assay: Antiobesity activity in rat assessed as reduction in utero fat at 80 mg/kg administered every day through diet for 5 weeks measured after 5th week relative to control; assay type: functional; parameters: scale not given: the % may be the effect or the level left
Rattus norvegicus [14] = assay: Toxicity in rat assessed as increase in adrenal weight at 80 mg/kg administered every day through diet for 5 weeks measured after 5th week relative to control; assay type: organism-based; parameters: dose 80 mg/kg; conditions: in vivo, po, 840 h
Rattus norvegicus [15] = assay: Toxicity in rat assessed as increase in adrenal weight at 80 mg/kg, po qd administered for 5 days measured on day 6 relative to control; assay type: organism-based; parameters: dose 80 mg/kg, route oral; conditions: in vivo, 120 h
Rattus norvegicus [16] = assay: Toxicity in rat assessed as decrease in liver weight at 80 mg/kg administered every day through diet for 5 weeks measured after 5th week relative to control; assay type: organism-based; parameters: dose 80 mg/kg; scale not given: the % may be the effect or the level left; conditions: in vivo, po, 840 h
Rattus norvegicus [17] = assay: Toxicity in rat assessed as decrease in liver weight at 80 mg/kg, po qd administered for 5 days measured on day 6 relative to control; assay type: organism-based; parameters: dose 80 mg/kg, route oral; scale not given: the % may be the effect or the level left; conditions: in vivo, 120 h
Canis familiaris [18] = assay: Toxicity in Beagle dog assessed as emesis up to 150 mg/kg administered through gelatin capsule for every week for 6 weeks; assay type: organism-based, Canis lupus familiaris; parameters: dose 150 mg/kg; conditions: in vivo, 1008 h
Canis familiaris [19] = assay: Antiobesity activity in Beagle dog assessed as decrease in food intake at 4 mg/kg administered every day through gelatin capsule for 6 weeks measured every day 2 hrs post feeding relative to placebo control; assay type: functional, Canis lupus familiaris; parameters: scale not given: the % may be the effect or the level left
Canis familiaris [20] = assay: Antiobesity activity in Beagle dog assessed as decrease in body weight at 4 mg/kg administered every day through gelatin capsule for 6 weeks measured every week for 6 weeks relative to placebo control; assay type: functional, Canis lupus familiaris; parameters: scale not given: the % may be the effect or the level left
Mus musculus [21] = assay: Antiobesity activity in mouse assessed as reduction in utero fat at 0.04% administered every day through diet for 10 days measured after day 10 relative to control; assay type: functional; parameters: scale not given: the % may be the effect or the level left
Canis familiaris [22] = assay: Antiobesity activity in Beagle dog assessed as decrease in food intake at 4 mg/kg administered every day through gelatin capsule for 6 weeks measured 9 days post last dose; assay type: functional, organism-based; parameters: dose 4 mg/kg; conditions: Canis lupus familiaris
Mus musculus [23] = assay: Effect on blood glucose level in mouse at 0.04% administered every day through diet for 10 days measured on day 10 by glucose oxidase method; assay type: functional, organism-based
Mus musculus [24] = assay: Antiobesity activity in mouse assessed as reduction in utero fat at 0.08% administered every day through diet for 10 days measured after day 10 relative to control; assay type: functional; parameters: scale not given: the % may be the effect or the level left
Canis familiaris [25] = assay: Toxicity in Beagle dog assessed as emesis up to 10 mg/kg administered through gelatin capsule for every week for 6 weeks; assay type: organism-based, Canis lupus familiaris; parameters: dose 10 mg/kg; conditions: in vivo, 1008 h
Mus musculus [26] = assay: Antiobesity activity in mouse assessed as reduction in utero fat at 0.02% administered every day through diet for 10 days measured after day 10 relative to control; assay type: functional; parameters: scale not given: the % may be the effect or the level left
Rattus norvegicus [27] = assay: Antiobesity activity in rat assessed as reduction in food intake at 100 mg/kg, po qd administered for 5 days measured every day for 5 days relative to control; assay type: functional; parameters: scale not given: the % may be the effect or the level left
Rattus norvegicus [28] = assay: Antiobesity activity in rat assessed as reduction in body weight at 100 mg/kg, po qd administered for 5 days measured on day 6 relative to control; assay type: functional; parameters: scale not given: the % may be the effect or the level left
Rattus norvegicus [29] = assay: Antiobesity activity in rat assessed as reduction in utero fat at 100 mg/kg, po qd administered for 5 days measured on day 6 relative to control; assay type: functional; parameters: scale not given: the % may be the effect or the level left
Rattus norvegicus [30] = assay: Toxicity in rat assessed as increase in adrenal weight at 100 mg/kg, po qd administered for 5 days measured on day 6 relative to control; assay type: organism-based; parameters: dose 100 mg/kg, route oral; conditions: in vivo, 120 h
Rattus norvegicus [31] = assay: Toxicity in rat assessed as increase in liver weight at 100 mg/kg, po qd administered for 5 days measured on day 6 relative to control; assay type: organism-based; parameters: dose 100 mg/kg, route oral; conditions: in vivo, 120 h
Mus musculus [32] = assay: Antiobesity activity in mouse assessed as reduction in utero fat at 0.005% administered every day through diet for 10 days measured after day 10 relative to control; assay type: functional; parameters: scale not given: the % may be the effect or the level left
Mus musculus [33] = assay: as §1; assay type: organism-based; conditions: in vivo, 504 h
Mus musculus [34] = assay: Effect on blood glucose level in mouse at 0.01% administered every day through diet for 10 days measured on day 10 by glucose oxidase method; assay type: functional, organism-based
Mus musculus [35] = assay: Reduction of plasma insulin level in mouse at 0.01% administered every day through diet for 10 days measured on day 10 by double antibody method relative to control; assay type: functional; parameters: scale not given: the % may be the effect or the level left

With `CC(C)NCC(O)COc1c(C(C)(C)C)cc(/C=C/c2ccccc2)cc1C(C)(C)C` (racemic) [listing 1 of 2 here] the Activity (Mus musculus [1]) was 27%, the Activity (Rattus norvegicus [2]) was “Toxic” and the Activity (Mus musculus [3]) was 26%. For the same compound, the ED25 (Mus musculus [4]) was 10 mg/kg, the MTD at 504 h [5] was 50 mg/kg and the selectivity ratio [6] was 5. For the same compound, the Activity (Mus musculus [7]) was “Non-toxic”, the Activity (Rattus norvegicus [8]) was “Non-toxic” and the Activity (Rhesus monkey) was “Non-toxic”. The Activity (Rattus norvegicus [9]) was 10%, the Activity (Rattus norvegicus [10]) was 79% and the Activity (Rattus norvegicus [11]) was 9%. It also gave an Activity (Rattus norvegicus [12]) of 10%, an Activity (Rattus norvegicus [13]) of 35% and an Activity (Rattus norvegicus [14]) of 16%. It also gave an Activity (Rattus norvegicus [15]) of 21%, an Activity (Rattus norvegicus [16]) of 3.4% and an Activity (Rattus norvegicus [17]) of 9%. The Activity (Canis familiaris [18]) was “Toxic”, the Activity (Canis familiaris [19]) was 40% and the Activity (Canis familiaris [20]) was 13%.
With `C[C@H](N)Cc1ccccc1` [DEXTROAMPHETAMINE] the Activity (Rattus norvegicus [2]) was “Toxic”, the Activity (Mus musculus [21]) was 59% and the Activity (Mus musculus [3]) was 34%.
With `CC(C)NCC(O)COc1c(C(C)(C)C)cc(/C=C/c2ccccc2)cc1C(C)(C)C` (racemic) [listing 2 of 2 here] the Activity (Canis familiaris [22]) was “inactive” and the Activity (Mus musculus [23]) was “inactive”.
With `CCNC(C)Cc1cccc(C(F)(F)F)c1` (stereo not drawn) [FENFLURAMINE] the Activity (Mus musculus [21]) was “inactive”, the Activity (Mus musculus [24]) was 20% and the Activity (Canis familiaris [25]) was “Non-toxic”.
In the case of `CC(C)NCC(O)COc1ccc(Oc2ccc(Cl)cc2)cc1` (stereo not drawn), the Activity (Mus musculus [26]) is reported as 25%, the ED25 (Mus musculus [4]) is reported as 18 mg/kg and the MTD at 504 h [5] is reported as 100 mg/kg. The selectivity ratio [6] was 5.5, the Activity (Mus musculus [7]) was “Non-toxic” and the Activity (Rattus norvegicus [27]) was 22%. The Activity (Rattus norvegicus [28]) was 1%, the Activity (Rattus norvegicus [29]) was 18% and the Activity (Rattus norvegicus [30]) was 8%. It also gave an Activity (Rattus norvegicus [31]) of 11%.
For `CC(C)NCC(O)COc1c(C(C)(C)C)cc(-c2cccs2)cc1C(C)(C)C.O=C(O)/C=C\C(=O)O` (stereo not drawn), the Activity (Mus musculus [32]) was 33% and the Activity (Mus musculus [33]) was “Toxic”.
For `CC(C)NCC(O)COc1c(C(C)(C)C)cc(/C=C/c2cccs2)cc1C(C)(C)C` (stereo not drawn), the Activity (Mus musculus [34]) was “inactive”, the Activity (Mus musculus [35]) was 46% and the Activity (Mus musculus [26]) was 30%. It also gave an ED25 (Mus musculus [4]) of 6 mg/kg, an MTD at 504 h [5] of under 25 mg/kg and a selectivity ratio [6] of under 4.1. The Activity (Mus musculus [7]) was “Non-toxic”.
